In ChEMBL document CHEMBL5029141, “Three-Dimensional Proteome-Wide Scale Screening for the 5-Alpha Reductase Inhibitor Finasteride: Identification of a Novel Off-Target” (J Med Chem, 2021):
Active and inactive are the calls of the source. The rule behind the calls is not given here.

Experiments:
Rattus norvegicus [1] = assay: Effect on PNMT protein expression level in Sprague-Dawley rat at 1 mg, sc once daily treated for 20 days and measured after 24 hrs post last dose by western blot analysis; assay type: functional, organism-based; conditions: time 20.0 day
Rattus norvegicus [2] = assay: In vivo inhibition of PNMT in Sprague-Dawley rat assessed as increase in norepinephrine level in adrenal gland at 1 mg, sc administered once daily for 20 days and measured after 24 hrs post last dose by liquid chromatography tandem mass spectrometry analysis; assay type: functional, organism-based; conditions: time 20.0 day
[3] = biological target: T1, Phenylethanolamine N-methyltransferase (Homo sapiens) (UniProt P11086); assay: Inhibition of human recombinant PNMT using AdoMet and DL-norepinephrine hydrocloride as substrate preincubated for 30 mins followed by substrate addition and measured after 30 mins by fluorescence based analysis relative to control; conditions: time 1.0 hrs
T1 sequence (whole entry): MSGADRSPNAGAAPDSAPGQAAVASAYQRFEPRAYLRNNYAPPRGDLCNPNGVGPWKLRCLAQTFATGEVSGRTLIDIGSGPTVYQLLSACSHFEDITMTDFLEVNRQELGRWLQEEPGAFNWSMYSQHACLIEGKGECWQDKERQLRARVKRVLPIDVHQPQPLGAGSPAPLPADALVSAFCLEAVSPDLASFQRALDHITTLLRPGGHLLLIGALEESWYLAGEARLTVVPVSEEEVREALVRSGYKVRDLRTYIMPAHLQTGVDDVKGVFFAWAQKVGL

Rattus norvegicus [4] = assay: In vivo inhibition of PNMT in Sprague-Dawley rat assessed as decrease in epinephrine level in adrenal gland at 1 mg, sc once daily treated for 20 days and measured after 24 hrs post last dose by liquid chromatography tandem mass spectrometry analysis; assay type: functional, organism-based; conditions: time 20.0 day

| Compound | Activity (Rattus norvegicus [1]) | Activity (Rattus norvegicus [2]) | inhibition [3] | Activity (Rattus norvegicus [4]) |
| --- | --- | --- | --- | --- |
| CC(C)(C)NC(=O)[C@H]1CC[C@H]2[C@@H]3CC[C@H]4NC(=O)C=C[C@]4(C)[C@H]3CC[C@]12C | inactive | Active | > 30% | Active |
| CC(N)c1cccc(Cl)c1Cl (stereo not given) | – | – | 60% | – |
